Source: ChEMBL document CHEMBL1201862, “PubChem BioAssay data set” (2004)
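Protocol summary: plate cells (96-well), add compound at 5 concentrations, incubate 48 h, interpolate endpoints linearly. Abbreviation: GI50, concentration required for 50% inhibition of growth.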 Activity calls are given as the source filed them. No stated cut-off is given here; in the data, active = GI50 up to about 1.1 µM and inactive = higher.

Assays:
Assay in all cases: NCI-60 cell line screen, 48 h
DLD-1 = tested on: DLD-1
ACHN = tested on: ACHN
UO-31 = tested on: UO-31
A498 = tested on: A498
SNB-75 = tested on: SNB-75
EKVX = tested on: EKVX
NCI-H522 = tested on: NCI-H522
RXF 393 = tested on: RXF 393
CAKI-1 = tested on: CAKI-1
DMS-273 = tested on: DMS-273
KM-20L2 = tested on: KM-20L2
SK-MEL-2 = tested on: SK-MEL-2
SK-OV-3 = tested on: SK-OV-3
UACC-62 = tested on: UACC-62
M19-MEL = tested on: M19-MEL
786-0 = tested on: 786-0

Measured: GI50

O=[N+]([O-])c1ccc(C2=Nc3ccccc3SC(c3ccccc3)C2)cc1 (stereo unspecified)
inactive: DLD-1 18.9 µM | ACHN 18.2 µM | UO-31 12.9 µM | A498 22.3 µM | SNB-75 18.1 µM | EKVX 16.6 µM | NCI-H522 13.4 µM | RXF 393 24.6 µM | CAKI-1 17.6 µM | DMS-273 13.3 µM | KM-20L2 17.6 µM | SK-MEL-2 18.4 µM | SK-OV-3 21 µM | UACC-62 13.7 µM | M19-MEL 15.4 µM

O=C(Nc1ccccc1Br)c1cccc([N+](=O)[O-])c1O
inactive: DLD-1 4.32 µM | ACHN 3.67 µM | UO-31 1.89 µM | A498 2.49 µM | SNB-75 5.25 µM | EKVX 3.04 µM | NCI-H522 2.03 µM | RXF 393 1.86 µM | CAKI-1 3.37 µM | 786-0 3.99 µM | DMS-273 3.53 µM | KM-20L2 4.09 µM | SK-MEL-2 6.9 µM | SK-OV-3 3.95 µM | UACC-62 1.91 µM | M19-MEL 2.51 µM

CN(C)C(=O)C1CCC(=C2C(=O)OC(C)(C)OC2=O)N1C (stereo unspecified)
inactive: DLD-1 > 100 µM | ACHN > 100 µM | UO-31 > 100 µM | A498 > 100 µM | SNB-75 > 100 µM | EKVX > 100 µM | NCI-H522 > 100 µM | RXF 393 > 100 µM | CAKI-1 > 100 µM | 786-0 > 100 µM | DMS-273 > 100 µM | KM-20L2 > 100 µM | SK-MEL-2 > 100 µM | SK-OV-3 > 100 µM | UACC-62 > 100 µM | M19-MEL > 100 µM

CCc1ccc(Nc2cc(=O)[nH]c(=S)n2C)cc1
inactive: DLD-1 > 100 µM | UO-31 > 100 µM | A498 > 100 µM | SNB-75 46.3 µM | EKVX 88.3 µM | NCI-H522 > 100 µM | RXF 393 > 100 µM | CAKI-1 > 100 µM | 786-0 > 100 µM | DMS-273 > 100 µM | KM-20L2 > 100 µM | SK-MEL-2 > 100 µM | SK-OV-3 > 100 µM | UACC-62 > 100 µM | M19-MEL > 100 µM

N[C@@H](CSCSC[C@H](N)C(=O)O)C(=O)O
inactive: DLD-1 > 225 µM | UO-31 > 225 µM | A498 > 225 µM | SNB-75 > 225 µM | EKVX > 225 µM | NCI-H522 > 225 µM | RXF 393 > 225 µM | CAKI-1 > 225 µM | DMS-273 > 225 µM | KM-20L2 > 164 µM | SK-MEL-2 > 225 µM | SK-OV-3 > 225 µM | UACC-62 > 225 µM | M19-MEL > 225 µM
